# Laboratory results as given in publication PMC11019550, “Potent Inhibition of E. coli DXP Synthase by a gem-Diaryl Bisubstrate Analog” (ACS Infectious Diseases, 2024).
# Key:
# [1] = target: T1, WT EcDXPS (Escherichia coli, UniProt P77488); test: Circular dichroism titration (PLThDP formation, apparent KD) on WT EcDXPS; format: binding
# T1 construct: made in house
# Text: The X-ray structure obtained from cocrystallization of DrDXPS with 1 (Figure 2) indicates the formation of the PLThDP adduct by reaction of the acetylphosphonate mimic of pyruvate with the C2 carbanion of ThDP. We reasoned that 8 should also engage the pyruvate binding site and react with ThDP to form a PLThDP adduct. Circular dichroism (CD) is a powerful tool that can be used to detect LThDP and LThDP-like adducts on thiamin-dependent enzymes,[56],[67]−[75] including DXPS.[31],[36],[43],[44],[49]−[52],[76] DXPS bound to ThDP (E-ThDP) is characterized by a CD λmin at 320 nm, indicative of the 4′-aminopyrimidine (AP) tautomer of ThDP (Figure 8A). Upon addition of pyruvate to E-ThDP, a new positive signal emerges at 313 nm, indicating the formation of LThDP in its 1′,4′-iminopyrimidine (IP) form. Similarly, upon addition of AP-based inhibitors to E-ThDP, the E-PLThDP adduct is formed, characterized by an increasing, broad CD signal.[69],[77],[78] Determination of apparent KD of PLThDP by plotting the CD signal corresponding to PLThDP versus [MAP] has been used as a proxy for PLThDP affinity.[77],[78] To confirm that 8 reacts with ThDP to form PLThDP in the DXPS active site, the change in CD signal upon addition of 8 (0.25–30 μM) to EcDXPS (30 μM) was measured. […] Plotting the CD signal at 294 nm versus affords a curve that approaches the limiting asymptotes defined by infinitely tight binding (Figure 8C),[79],[80] which is expected for this nanomolar inhibitor under the conditions of high [DXPS] required for this method. Since in this case [DXPS] ≫ KD^app, an accurate determination of KD^app is not possible, and data were fit to a quadratic equation to give an estimated upper limit for the value of KD^app (≤0.04 ± 0.01 μM). Addition of 10 to DXPS also results in an increased, broad CD signal (Figure S7A), indicating PLThDP formation. […]
# CD titrations of 8 and 10 onto WT, R99A, and R478A EcDXPS variants were conducted at 25 °C under aerobic conditions in 1.5 mL solutions containing 30 μM EcDXPS in 50 mM HEPES pH 8, 100 mM NaCl, 1 mM MgCl2, and 0.2 mM ThDP. […] The CD signals at 294 nm determined from the difference spectra obtained by subtracting the signal of E-ThDP at 294 nm were plotted as a function of [inhibitor] and fit to (1) the quadratic equation described in eq 2 (8 on WT DXPS), where E is the concentration of DXPS taking into account stoichiometric binding and CDmax is the maximal CD signal, or (2) a one-site specific binding curve (all other experiments) using GraphPad Prism Version 9 to calculate an apparent KD. Experiments were conducted in triplicate and the standard error was calculated. […]
# At the conclusion of the titration described above, the CD signal at 313 nm (previously characterized for LThDP) was recorded. […]
# [2] = target: T2, wildtype EcDXPS (Escherichia coli, UniProt P77488); test: IC50 determination for 8 on wildtype EcDXPS (DXPS-IspC coupled assay); format: biochemical
# T2 construct: made in house
# T2 sequence (P77488 whole entry): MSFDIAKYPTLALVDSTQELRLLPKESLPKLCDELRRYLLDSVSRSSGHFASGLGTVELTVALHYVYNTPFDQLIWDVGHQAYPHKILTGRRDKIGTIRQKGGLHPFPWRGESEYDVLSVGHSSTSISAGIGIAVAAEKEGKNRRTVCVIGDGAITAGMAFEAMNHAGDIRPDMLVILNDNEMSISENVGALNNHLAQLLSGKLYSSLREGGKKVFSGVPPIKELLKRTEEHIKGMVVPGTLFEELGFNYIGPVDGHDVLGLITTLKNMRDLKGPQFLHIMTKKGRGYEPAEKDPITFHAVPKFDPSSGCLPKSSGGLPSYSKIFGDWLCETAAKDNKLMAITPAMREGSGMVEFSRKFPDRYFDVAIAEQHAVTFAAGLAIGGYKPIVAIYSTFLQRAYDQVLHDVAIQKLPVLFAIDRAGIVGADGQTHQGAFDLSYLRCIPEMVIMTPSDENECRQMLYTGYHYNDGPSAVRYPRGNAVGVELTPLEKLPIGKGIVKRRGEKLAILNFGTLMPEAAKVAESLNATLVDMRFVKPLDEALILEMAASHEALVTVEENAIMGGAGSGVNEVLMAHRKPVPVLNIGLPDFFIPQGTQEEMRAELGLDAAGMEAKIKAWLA
# Protocol: EcDXPS and IspC were preincubated with inhibitor for 10 min at 25 °C in assay reaction buffer (100 mM HEPES pH 8, 2 mM MgCl2, 5 mM NaCl, 1 mM ThDP, and 200 μM NADPH). Enzyme concentrations for variants were as follows: 200 nM DXPS (wildtype EcDXPS) and 4 μM IspC; 400 nM DXPS (R99A and R478A EcDXPS) and 6 μM IspC. The reaction was initiated by the addition of substrates at final concentrations of 2 × Km pyruvate and 10 × KmD-GAP. NADPH consumption was monitored at 340 nm for 10 min at 25 °C. The initial rate of NADPH consumption was used to determine the initial rate of DXP formation catalyzed by DXPS. Experiments were performed in triplicate and error bars represented standard error.
# [3] = test system: porcine pyruvate dehydrogenase (PDH) E1 subunit; test: Inhibition of porcine pyruvate dehydrogenase (PDH); format: biochemical
# Text: As noted, DXPS has a large active site and follows a mechanism requiring ternary complex formation, distinct from other ThDP-dependent pyruvate decarboxylases. We hypothesized that the sterically demanding scaffold of 8, predicted to engage both substrate binding sites, should display selectivity for DXPS. In a preliminary assessment, we tested 8 as an inhibitor of porcine pyruvate dehydrogenase (PDH) E1 subunit. […] For comparison, the selectivity ratio for 1 was estimated to be >15,000-fold for DXPS over porcine PDH.
# Figure S5. Evaluation of inhibitory activity of 8 against mammalian porcine pyruvate dehydrogenase (PDH). Porcine PDH (0.01 U/mL) and inhibitor (8 or MAP positive control) were preincubated for 10 minutes at 25 °C in enzyme buffer (2 mM MgCl2, 5 mM L-cysteine, 1 mM ThDP, 300 μM TCEP, 100 mM HEPES pH 8, 2.5 mM NAD +, and 100 μM coenzyme A). The reaction was initiated by addition of pyruvate (60 μM). The change in absorbance at 340 nm over time was measured and used to calculate the initial rate of NADH formation. The % activity of PDH in the presence of 8 or MAP was plotted using GraphPad Prism version 9. There is 21% inhibition of PDH activity observed in the presence of compound 8 at a concentration of 1 mM.
# Experiments were performed in triplicate. Error bars represent standard error.
# Figure S6. Replicate progress curves for DXP formation in the presence or absence of inhibitors 8 or 10 with EcDXPS. A) Progress curves for formation of DXP in the presence of 8 display time-dependence of inhibition. B) Progress curves for formation of DXP in the presence of descarboxyl […]
# T1 sequence (P77488 whole entry): as above
smiles,measurement,setting,value
CC(=O)P(=O)(O)OCCc1cn(C(Cc2ccccc2)(Cc2ccccc2)C(=O)O)nn1 [Compound 8],Kd,[1],≤ 0.04 µM
same,change in PLThDP CD signal upon addition of 1 mM pyruvate,"[1]; WT EcDXPS 30 μM, inhibitor 30 μM",negligible shift in the CD signal
same,IC50,[2],≤ 0.072 µM
same,concentration required for 21% inhibition of DXPS,[2]; 2 × Km pyruvate,less than 15.6 nM
same,estimated selectivity ratio for DXPS over porcine PDH,[3]; DXPS over porcine PDH,"> 64,000 fold"
same,inhibition of PDH,"[3]; at a concentration of 1 mM, 60 μM pyruvate, 10 min preincubation",21%
